Measured values as given in patent US6469052B2, “Compounds for the photodecontamination of pathogens in blood” (Cerus Corporation, priority 1993, dated 2002).
Like-named read-outs stand apart in the source and are kept apart here.

What was measured:
HIV-1 = conditions: concentrations of 64 μM of compound or higher
Procedure: Pathogen inactivation efficiency of several compounds of the present invention was evaluated by examining the ability of the compounds to inactivate cell-free virus (HIV). Inactivation of cell-free HIV was performed as follows.
As in the R17 assay, small aliquots of the compounds listed in TABLES 10 and 11, below, at the concentrations listed in the table, were added to stock HIV-1 to a total of 0.5 mL. The stock HIV (10^5-10^7 plaque forming units/mL) was in DMEM/15% FBS. […] Controls included HIV-1 stock only, HIV-1 plus UVA only, and HIV-1 plus the highest concentration of each psoralen tested, with no UVA. Post irradiation, all samples were stores frozen at −70° C. until assayed for infectivity by a microtiter plaque assay. Aliquots for measurement of residual HIV infectivity in the samples treated with a compound of the present invention were withdrawn and cultured.
Residual HIV infectivity was assayed using an MT-2 infectivity assay. […] After 24 to 48 hours, the red fluorescence-stained microplaques were visualized by placing the plates on an 8,000 μW/cm^2 304 nm UV light box (Fotodyne, Inc., New Berlin, Wis.). The plaques were counted at a magnification of ×20 to ×25 through a stereomicroscope.

[1] = tested on: Salmonella typhimurium TA100
Description: (§1) The second property that is important in testing a compound for use in methods of the present invention is mutagenicity. The most widely used mutagen/carcinogen screening assay is the Ames test. This assay is described by D. M. Maron and B. N. Ames in Mutation Research 113: 173 ( 1983) and a specific screen is described in detail in Example 17, below. The Ames test utilizes several unique strains of Salmonella typhimurium that are histidine- dependent for growth and that lack the usual DNA repair enzymes. The frequency of normal mutations that render the bacteria independent of histidine (i.e., the frequency of spontaneous revertants) is low. The test allows one to evaluate the impact of a compound on this revertant frequency.
(§2) In this example the compounds of the present invention are tested for their dark mutagenicity using an Ames assay. The procedures used for the Salmonella mutagenicity test as described in detail by Maron and Ames were followed exactly. Maron, D. M. and B. N. Ames, Mutation Research 113: 173 ( 1983). A brief description for each procedure is given here. The tester strains TA97a, TA98, TA100, TA102, TA1537 and TA1538 were obtained from Dr. Ames. TA97a, TA98, TA1537 and TA1538 are frameshift tester strains. TA100 and TA102 are base-substitution tester strains. Upon receipt each strain was cultured under a variety of conditions to confirm the genotypes specific to the strains.
(§3) The first tests done with the strains were to determine the range of spontaneous reversion for each of the strains. With each mutagenicity experiment the spontaneous reversion of the tester strains to histidine independence was measured and expressed as the number of spontaneous revertants per plate. This served as the background controls.
(§4) For all experiments, the pre-incubation procedure was used. In this procedure one vial of each tester strain was thawed and 20 μL of this culture was added to 6 mL of Oxoid Nutrient Broth #2. This solution was allowed to shake for 10 hours at 37° C. In the pre-incubation procedure, 0.1 mL of this overnight culture was added to each of the required number of sterile test tubes. To half of the tubes 0.5 mL of a 10% S-9 solution containing Aroclor 1254 induced rat liver extract (Molecular Toxicology Inc., Annapolis, Md.), and MgCl2, KCl, glucose-6-phosphate, NADP, and sodium phosphate buffer (Sigma, St. Louis, Mo.) were added. To the other half of the tubes 0.5 mL of 0.2M sodium phospate buffer, pH 7.4, was used in place of the S-9 mixture (the -S9 samples). Finally 0.1 mL of the test solution containing either 0, 0.1, 0.5, 1, 5, 10, 50, 100, 250, or 500 μg/mL of the test compound was added. The 0.7 mL mixture was vortexed and then pre-incubated while shaking for 20 minutes at 37° C. After shaking, 2 mL of molten top agar supplemented with histidine and biotin were added to the 0.7 mL mixture and immediately poured onto a minimal glucose agar plate (volume of base agar was 20 mL). The top agar was allowed 30 minutes to solidify and then the plates were inverted and incubated for 44 hours at 37° C. After incubation the number of revertant colonies on each plate were counted. […] (“n” represents the number of replicates performed for each data point.)
(§5) Maron and Ames (1983) describe the conflicting views with regard to the statisical treatment of data generated from the test.

Pseudomonus = experiment: Bacterial inactivation (colony forming units); type: cell-based; conditions: 16 μM, after 5 J/cm^2 irradiation, starting titer 6.5 logs, 15% FBS in DMEM
Procedure: In this example bacterial inactivation by the photoreactive nucleic acid binding compounds of the present invention was measured as a function of the ability of the bacteria to subsequently replicate. A gram negative bacteria was chosen as representative of the more difficult bacterial strains to inactivate.
The bacteria, a strain of Pseudomonus, was innoculated into LB with a sterile loop and grown overnight in a shaker at 37° C. Based on the approximation that one OD at 610 nm is equivalent to 5×10^8 colony forming units (cfu)/mL, a 1:10 dilution of the culture was measured on a spectrophotometer, (manufactured by Shimatsu). The bacterial culture was added to a solution of 15% fetal bovine serum in DMEM to a final bacteria concentration of approximately 10^6/mL. An aliquot (0.8 mL) was transferred to a 1.5 mL snap-top polyethylene tube. An aliquot (0.004-0.040 mL) of the test compound stock solution prepared in water, ethanol or dimethylsulfoxide at 0.80-8.0 mM was added to the tube. Compounds were tested at a concentration of 16 μM. The tubes were placed in a light device as described in EXAMPLE 1 and irradiated with 1.3 J/cm^2, 1.2 J/cm^2, and finally 2.5 J/cm^2, for a total of 5 J/cm^2. […] The colony forming units were then counted the following morning and the titer of the […] remaining after phototreatment was calculated based on the dilution factors. […]

[2] = tested on: Salmonella typhimurium TA1538; experiment: Ames assay (dark mutagenicity), strain TA1538
Description: as §1, §2, §3, §4, §5

[3] = tested on: Salmonella typhimurium TA1537; experiment: Ames assay (dark mutagenicity), strain TA1537; conditions: TA1537 in the presence of S9
Description: as §1, §2, §3, §4, §5

Row | SMILES | HIV inactivation activity compared with AMT (HIV-1) | revertants per plate ([1]; TA100 +S9, 5 μg/plate) | revertants per plate ([1]; TA100 +S9, 10 μg/plate) | revertants per plate ([1]; TA100 +S9, 50 μg/plate) | revertants per plate ([1]; TA100 +S9, 100 μg/plate) | revertants per plate ([1]; TA100 −S9, 5 μg/plate) | revertants per plate ([1]; TA100 −S9, 10 μg/plate) | revertants per plate ([1]; TA100 −S9, 50 μg/plate) | revertants per plate ([1]; TA100 −S9, 100 μg/plate) | log kill of bacteria (Pseudomonus) [logs] | revertants per plate ([2]; TA1538 −S9, 5 μg/plate) | revertants per plate ([2]; TA1538 −S9, 10 μg/plate) | concentration showing a response [3] [μg/plate] | revertants per plate ([1]; TA100 +S9, 250 μg/plate)
1 | Cc1oc2c(C)c3oc(=O)cc(C)c3cc2c1COCCN [Compound 2, 4′-(4-amino-2-oxa)butyl-4,5′,8-trimethylpsoralen] | significantly more active than AMT | −18 | 1 | 115 | 96 | 103 | 46 | 182 | 121 | > 5.5 | −8 | −13 |  | 
2 | Cc1oc2c(C)c3oc(=O)cc(C)c3cc2c1CNCCCCN [Compound 6, 4′-(6-amino-2-aza)hexyl-4,5′,8-trimethylpsoralen] |  | 12 | −5 | 24 | −2 |  |  |  |  | > 5.5 | −5 | −2 | 50 | −38
